Test results published in paper PMC7460559 (International Journal of Molecular Sciences, 2020).
Converted amounts (≈) assume the structure as drawn. Residues, ends and D or L forms follow the SMILES beside them. No end group written: not given here.

What was measured:
[1] = test system: sheep red blood cells (sheep RBCs); assay: Hemolysis; format: cell-based; details: data overlapped with those of HPA3NT3-A2
Protocol: Fresh samples of sheep blood defibrinated cells (MBcell, Seoul, Korea) were centrifuged at 800× g and washed with phosphate-buffered saline (PBS) until the supernatant was clear. Serial dilutions (two-fold) of peptide prepared in PBS were plated, and sheep red blood cells (sheep RBCs) were added to a final concentration of 8% (v/v) in a 96-well plate. The samples were incubated for 1 h at 37 °C with gentle agitation and then centrifuged at 800× g for 10 min. The absorbance of the supernatant was measured at 414 nm; each measurement was performed in triplicate and the percentage hemolysis was calculated using Equation (1):% hemolysis = [(Abs414 in the peptide solution − Abs414 in PBS)/(Abs414 in 0.1% Triton-X100 − Abs414 in PBS)] × 100(1) where 100% hemolysis was defined as the absorbance of sheep RBCs containing 1% Triton X-100 and zero hemolysis was the value measured for sheep RBCs alone in PBS [10].

S. aureus ATCC 25923 = assay: Resistance development assay; format: cell-based, Staphylococcus aureus; details: S. aureus ATCC 25923, 12 passages from 1/2 MIC well, DMEM supplemented with 10% fetal bovine serum, MICs in duplicate
Protocol: Daily MICs were determined over 15 days for each agent using cells collected from the well determined as having half the MIC (1/2 MIC well). Briefly, cells from the 1/2 MIC well from the preceding day’s assay plate were resuspended and the OD600 was measured. The suspensions were then adjusted to achieve a bacterial concentration of 5 × 10^5 cfu/mL in DMEM supplemented with 10% fetal bovine serum and then mixed with each agent at the appropriate concentration. All MICs were determined in duplicate [26].

[2] = Reverse-phase HPLC retention time (hydrophobicity); format: physicochemical; details: mean retention time, Jupiter proteo C18 column (250 × 4.6 mm, 90 Å, 4 μm), 280 nm, used by the paper as measure of hydrophobicity
Protocol: Peptides were synthesized by using a 9-fluorenylmethoxycarbonyl (Fmoc) solid-phase method on Rink amide 4-methyl benzhydrylamine resin (Novabiochem, Darmstadt, Germany) (0.55 mmol/g) using a Liberty microwave peptide synthesizer (CEM, Matthews, NC, USA). To generate N-terminal fluorescently-labeled peptides, resin-bound peptides were treated with 20% (v/v) piperidine in dimethylformamide (DMF) to remove the Fmoc protection groups from the N-terminal amino acids. Rhodamine-SE dye was incubated with resin-bound peptide in DMF (3–4 eq.) containing 5% (v/v) diisopropylethylamine, and gently mixing for 24 h at room temperature in the dark. The resin was washed with dichloromethane (DCM). The peptides were cleaved from the corresponding resins, precipitated with ether, and extracted. The crude peptides were purified by reverse-phase preparative high-performance liquid chromatography (HPLC) on a Jupiter C18 column (250 × 21.2 mm, […], 300 Å; Phenomenex, Torrance, CA, USA) using a 0–60% acetonitrile gradient in water with 0.05% trifluoroacetic acid. The purity of the extracted peptide was then determined by analytical reversed-phase HPLC (wavelength of 280 nm) using a Jupiter proteo C18 column (250 × 4.6 mm, 90 Å, 4 μm). The molecular masses of the peptides were confirmed on a matrix-assisted laser desorption ionization mass spectrometer (Kratos Analytical, Kyoto, Japan).

[3] = test system: PE/PG (7:3, w/w) small unilamellar vesicle (SUV) liposomes; assay: Binding assay with SUV liposomes by CD; details: 50 μM peptide, 300 μM SUVs, 10 mM HEPES buffer (pH 7.4), 25 °C, n = 3
Protocol: (§1) SUVs were prepared by drying of phosphatidylethanolamine (PE)/phosphatidyl glycerol (PG) (7:3, w/w) or phosphatidylcholine (PC)/sphingomyelin (SM) (2:1, w/w) under nitrogen, suspension by vortex mixing in 10 mM HEPES buffer (pH 7.4), and sonication. To prepare the SUVs, the lipid diffusions were sonicated in a bath-type sonicator for 20 min. Next, the suspensions of preparation vesicles were extruded 10 times through polycarbonate membranes ([…] pores). The concentration of SUV liposomes was determined using a standard phosphate assay. Circular dichroism (CD) spectra were recorded at 25 °C on a Jasco 810 spectropolarimeter. The peptide (50 μM) solution was added to 400 μL of 10 mM HEPES buffer or to 300 μM SUVs. At least three scans were acquired at 250 to 190 nm.

[4] = test system: PC/SM (2:1, w/w) small unilamellar vesicle (SUV) liposomes; assay: Binding assay with SUV liposomes by CD; details: 50 μM peptide, 300 μM SUVs, 10 mM HEPES buffer (pH 7.4), 25 °C, n = 3
Protocol: as §1

S. aureus CCARM 3089 = assay: MIC assay, drug-resistant strain; format: cell-based; details: Staphylococcus aureus, CCARM3089, peptides in DMEM supplemented with 10% FBS
Text: (§2) Escherichia coli (ATCC 25922) and S. aureus (ATCC 25923) were obtained from American Type Culture Collection (Manassas, VA, USA). Escherichia coli CCARM 1229, E. coli CCARM 1238, S. aureus CCARM 3089, S. aureus 3114, Salmonella typhimurium CCARM 8009, and S. typhimurium CCARM 8013 were obtained from the culture collection of antibiotic-resistant microbes at Seoul Women’s University, Republic of Korea. Pseudomonas aeruginosa 3547 and P. aeruginosa 4007 were resistant strains isolated from hospital patients with otitis media at Chonnam National University, Republic of Korea. The rifampin-resistant S. aureus PBEL 1 and vancomycin-resistant S. aureus PBEL 2 strains used in this study were generated from wild-type S. aureus (ATCC 25923).
(§3) Bacterial cells were incubated within culture media at 37 °C. The peptide antimicrobial activity was determined by the minimal inhibition concentration (MIC) assay. […] The samples were incubated for 18–24 h at 37 °C. After incubation, the minimum inhibitory concentrations (MICs) of the peptides were determined by measuring the absorbance at an optical density of 600 nm (OD600).

S. aureus PBEL 2 = assay: MIC assay, drug-resistant strain; format: cell-based; details: Staphylococcus aureus, PBEL2; S. aureus PBEL 2, vancomycin-resistant (induced); peptides in DMEM supplemented with 10% FBS
Text: as §2, §3

P. aeruginosa 3547 = assay: MIC assay, drug-resistant strain; format: cell-based; details: Pseudomonas aeruginosa; P. aeruginosa 3547, resistant isolate from otitis media patients; peptides in DMEM supplemented with 10% FBS
Text: as §2, §3

S. aureus CCARM 3114 = assay: MIC assay, drug-resistant strain; format: cell-based; details: Staphylococcus aureus, CCARM3114, peptides in DMEM supplemented with 10% FBS
Text: as §2, §3

P. aeruginosa 4007 = assay: MIC assay, drug-resistant strain; format: cell-based; details: Pseudomonas aeruginosa; P. aeruginosa 4007, resistant isolate from otitis media patients; peptides in DMEM supplemented with 10% FBS
Text: as §2, §3

S. aureus PBEL 1 = assay: MIC assay, drug-resistant strain; format: cell-based; details: Staphylococcus aureus, PBEL1; S. aureus PBEL 1, rifampin-resistant (induced); peptides in DMEM supplemented with 10% FBS
Text: as §2, §3

[5] = test system: sheep red blood cells (sheep RBCs); details: at 250 μM; cited from earlier work
Protocol: (§4) Previously, we determined the properties of HPA3NT3 as an antimicrobial peptide. This peptide has an amphipathic helical structure, strong antimicrobial activity, and cytotoxic ability at 250 μM (sheep RBCs, 68.4%; HaCaT cells, 85.1%). This peptide was designed to have low cytotoxicity at higher concentrations and was generated by substituting phenylalanine with alanine and lysine (F1A, F8A, and N13K) to enhance its antimicrobial activity by increasing the net positive charge.

[6] = test system: HaCa T (human keratinocyte) cells; details: at 250 μM; cited from earlier work
Protocol: as §4

[7] = test system: S. typhimurium CCARM 8013; assay: MIC assay, drug-resistant strain; format: cell-based; details: Salmonella enterica, peptides in DMEM supplemented with 10% FBS
Text: as §2, §3

[8] = test system: S. typhimurium CCARM 8009; assay: MIC assay, drug-resistant strain; format: cell-based; details: Salmonella enterica, peptides in DMEM supplemented with 10% FBS
Text: as §2, §3

E. coli CCARM 1238 = assay: MIC assay, drug-resistant strain; format: cell-based; details: Escherichia coli, CCARM1238, peptides assayed in DMEM supplemented with 10% FBS
Text: as §2, §3

E. coli CCARM 1229 = assay: MIC assay, drug-resistant strain; format: cell-based; details: Escherichia coli, CCARM1229, peptides assayed in DMEM supplemented with 10% FBS
Text: as §2, §3

CC[C@H](C)[C@H](NC(=O)[C@@H](CCCCN)NC(=O)[C@@H](CCCCN)NC(=O)[C@H](C)NC(=O)[C@H](CC(C)C)NC(=O)[C@@H](CCCCN)NC(=O)[C@@H](CCCCN)NC(=O)[C@H](CC(C)C)NC(=O)[C@H](CCCNC(=N)N)NC(=O)[C@@H](CCCCN)NC(=O)[C@H](C)N)C(=O)N[C@@H](Cc1c[nH]c2ccccc12)C(=O)N[C@H](CCCCN)C(=O)N[C@@H](Cc1c[nH]c2ccccc12)C(=O)N[C@H](CCCCN)C(N)=O [HPA3NT3-A2D] (HELM PEPTIDE1{A.[dK].R.L.[dK].[dK].L.A.[dK].[dK].I.W.[dK].W.[dK].[am]}$$$$V2.0; N-terminus assumed)
hemolysis against sheep RBCs (in words) [1]: non-hemolysis | increase in MIC (resistance development) (S. aureus ATCC 25923): no change in the MIC | Retention Time [2]: 11.97 min | interaction with PE/PG liposome (CD) [3]: low levels of α-helical structures | interaction with PC/SM liposome (CD) [4]: low levels of α-helical structures

O=C(O)c1cn(C2CC2)c2cc(N3CCNCC3)c(F)cc2c1=O [Cip, ciprofloxacin]
MIC (S. aureus CCARM 3089): > 512 µM | MIC (S. aureus PBEL 2): > 512 µM | MIC (P. aeruginosa 3547): > 512 µM | MIC (S. aureus CCARM 3114): > 512 µM | MIC (P. aeruginosa 4007): > 512 µM | MIC (S. aureus PBEL 1): > 512 µM

CO[C@H]1/C=C/O[C@@]2(C)Oc3c(C)c(O)c4c(O)c(c(/C=N/N5CCN(C)CC5)c(O)c4c3C2=O)NC(=O)/C(C)=C\C=C\[C@H](C)[C@H](O)[C@@H](C)[C@@H](O)[C@@H](C)[C@H](OC(C)=O)[C@@H]1C [rifampin]
increase in MIC (resistance development) (S. aureus ATCC 25923): 8192 fold

FKRLKKLFKKIWNWK-NH2 [HPA3NT3]
Retention Time [2]: 20.94 min | hemolytic activity against sheep RBCs [5]: 68.4% | toxicity against HaCaT cells [6]: 85.1% | interaction with PE/PG liposome (CD) [3]: strongest interaction and α-helical structure | interaction with PC/SM liposome (CD) [4]: strongest interaction and α-helical structure

CC1(C)S[C@@H]2[C@H](NC(=O)[C@H](N)c3ccccc3)C(=O)N2[C@H]1C(=O)O [Amp, ampicillin]
MIC (S. aureus CCARM 3089): > 512 µM | MIC [7]: > 512 µM | MIC (S. aureus PBEL 2): > 512 µM | MIC (P. aeruginosa 3547): > 512 µM | MIC (S. aureus CCARM 3114): > 512 µM | MIC (P. aeruginosa 4007): > 512 µM | MIC (S. aureus PBEL 1): > 512 µM | MIC [8]: > 512 µM

CC[C@H]1OC(=O)[C@H](C)[C@@H](O[C@H]2C[C@@](C)(OC)[C@@H](O)[C@H](C)O2)[C@H](C)[C@@H](O[C@@H]2O[C@H](C)C[C@H](N(C)C)[C@H]2O)[C@](C)(O)C[C@@H](C)C(=O)[C@H](C)[C@@H](O)[C@]1(C)O [Ery, erythromycin]
MIC (S. aureus CCARM 3089): > 512 µM | MIC (E. coli CCARM 1238): 256 µM (≈ 188 µg/mL) | MIC [7]: 128 µM (≈ 93.9 µg/mL) | MIC (S. aureus PBEL 2): > 512 µM | MIC (P. aeruginosa 3547): > 512 µM | MIC (S. aureus CCARM 3114): > 512 µM | MIC (E. coli CCARM 1229): 256 µM (≈ 188 µg/mL) | MIC (P. aeruginosa 4007): > 512 µM | MIC (S. aureus PBEL 1): > 512 µM | MIC [8]: 256 µM (≈ 188 µg/mL)
